Structures can show the parent of a compound that is named as a salt. Where two headings read alike, the source gives them in different places.
Columns and labels:
[1] = tested on: endosome acidification in BSC-1 cells; type: cell-based, Grivet monkey
[2] = tested on: EBOV VLP trafficking in BSC-1 cells; type: cell-based, Grivet monkey
Huh 7 cells = conditions: human
MARV = experiment: organism not typed; type: cell-based, Marburg virus
in vitro [3] = conditions: African green monkey
EBOV GP VLPs = type: cell-based, Ebola virus
[4] = mouse, in vivo
in vivo = conditions: mouse, ip, 10 mg/kg
[5] = human, in vivo; cited from earlier work
in vitro [6] = conditions: human
[7] = tested on: cholesterol levels in endolysosomes of BSC-1 cells; type: cell-based, Grivet monkey
EBOV trVLPs = type: cell-based, Ebola virus
EBOV/Mak = experiment: microbe, parasite or virus in culture; type: cell-based, Ebola virus; conditions: for IC50: Zaire ebolavirus
cathepsin B and L = type: cell-based, Grivet monkey; conditions: pH 5
in vitro [8] = conditions: human; remark: listed apart in the source

## CO/C1=C\C(C)=C\[C@@H](C)[C@@H](O)[C@@H](C)C/C(C)=C/C=C/[C@H](OC)[C@@H]([C@@H](C)[C@@H](O)[C@H](C)[C@@]2(O)C[C@@H](O)[C@H](C)[C@@H](C(C)C)O2)OC1=O [Bafilomycin]
[1]
  effect on endosome acidification: blocks endosome acidification

## COC(=O)Nc1nc2ccc(C(=O)c3cccs3)cc2[nH]1 [nocodazole, Nocodazole]
[2]
  EBOV VLP trafficking to NPC1+ endolysosomes (Manders colocalization): blocked EBOV VLP trafficking to NPC1^+ endolysosomes to a similar extent as nocodazole

## Cc1cccc(/C=N/Nc2cc(N3CCOCC3)nc(OCCc3ccccn3)n2)c1 [Apilimod, apilimod]
Huh 7 cells
  CC50: 500 ± 100 nM
MARV
  IC50: 10 nM
  fold higher activity than the positive control: 38- to 1160 fold
MARV; 48 h
  IC50: 10 ± 4 nM
MARV; Huh-7, 48 h
  IC50: 140 ± 50 nM
MARV; Vero C1008
  IC50: 15 to 25 nM
MARV; Vero C1008, 48 h
  IC50: 15 ± 3 nM
In vitro [3]
  CC50: > 2000 nM
EBOV GP VLPs
  EBOV VLP entry: blocks EBOV VLP entry into BSC-1 cells with the same approximate dose-dependency as its effects in HEK 293T/17 cells
  EBOV particle (VLP) entry: blocked
[4]
  Cmax relative to IC50 in hMDMs: ~ 250 times
In vivo
  Cmax: 2530 nM
[1]
  effect on endosome acidification: no detectable effect on endosome acidification
[5]
  tolerability in humans: well-tolerated
In vitro [6]
  CC50: > 2000 nM
[7]
  cholesterol levels in endolysosomes: did not cause a detectable increase
EBOV trVLPs
  EBOV particle replication (trVLP infection): blocked
EBOV/Mak
  fold higher activity than the positive control, toremifene citrate: 6- to 247 fold
  fold less potent in Huh 7 cells: ~ 10 fold
  IC50: 10 nM
EBOV/Mak; 48 h
  IC50: 9 ± 1 nM
EBOV/Mak; Huh-7
  IC50: 140 nM
EBOV/Mak; Huh-7, 48 h
  IC50: 136 ± 40 nM
EBOV/Mak; Vero C1008
  IC50: 15 to 25 nM
EBOV/Mak; Vero C1008, 48 h
  IC50: 25 ± 10 nM
Cathepsin B and L
  effect on the activity of cathepsin B and L: no apparent direct effect
[2]
  EBOV VLP trafficking to NPC1+ endolysosomes (Manders colocalization): blocked EBOV VLP trafficking to NPC1^+ endolysosomes to a similar extent as nocodazole
  VLP colocalization with EEA1+ endosomes: caused EBOV VLPs to accumulate in EEA1^+ endosomes
  VLP colocalization with NPC1 over time course: at no point during this time course were VLPs seen to associate with NPC1^+ endolysosomes
In vitro [8]
  CC50: 480 ± 80 nM

## CN(C)CCOc1ccc(/C(=C(/CCCl)c2ccccc2)c2ccccc2)cc1 [Toremifene citrate]
MARV
  IC50: 11600 nM
MARV; Huh-7
  IC50: 5380 nM
MARV; Vero C1008
  IC50: 2360 nM
EBOV/Mak
  IC50: 2470 nM
EBOV/Mak; Huh-7
  IC50: 730 nM
EBOV/Mak; Vero C1008
  IC50: 1670 nM

Reference: publication PMC5402990 (PLoS Neglected Tropical Diseases, 2017)
